Measurements as given in patent US10160867B2, “Benzoxaborole-containing coating resistant to cellulose-supportable fungus” (THE PENN STATE RESEARCH FOUNDATION, priority 2015, dated 2018).
In brackets after ≈: the same amount, converted by molar mass.

Columns and labels:
Format in all cases: cell-based
Aureobasidium pullulans = assay: 3 day MIC, broth microdilution in 25% PDB; details: 72 h
Procedure: (§1) Stock solutions (concentrations of between 4,000 μg/mL to 10,000 μg/mL; stored at −18° C.) of the above antifungals were prepared in dimethyl sulfoxide (DMSO). The stock solutions were further diluted into sterile 25% potato dextrose broth (PDB) so that the diluted solutions could be used for the antifungal susceptibility studies. This way, a typical microdilution study would reach a final ratio of about 0.5-2% v/v of DMSO in 25% PDB.
(§2) Spore inocula were prepared in sterile distilled water with 0.1% Tween® 20 (a polysorbate surfactant), and a hemocytometer was used to determine the spore density. Typically, the spore inoculum was prepared fresh prior to each study, and the inoculum was appropriately diluted to a final concentration of 0.4-1×10^5 spores/mL or colony-forming unit (CFU)/mL in each study. The spore suspension can be stored in a refrigerator at 4° C. for up to one week.
(§3) The minimal inhibitory concentrations (MICs) for individual antifungal agents were determined by following a modified broth microdilution protocol CLSI (Clinical and Laboratory Standards Institute) M38-A2 [Clinical and Laboratory Standards Institute (2008) Reference method for broth dilution antifungal susceptibility testing of filamentous fungi—2nd edition: Approved Standard M38-A2, CLSI, Wayne, Pa.] where 25% potato dextrose broth (PDB) was used as the medium. The studies were performed in flat bottom, 96-well microtiter plates (Greiner Bio-One, Frickenhausen, Germany).
(§4) Plates sealed with clear polyester film (VWR, Radnor, Pa.) were incubated at a temperature of about 25° C. The progress of fungal growth was monitored at 48 hours and 72 hours.

Aspergillus flavus = assay: 3 day MIC, broth microdilution in 25% PDB; details: 72 h
Procedure: as §1, §2, §3, §4

Fusarium oxysparum ST-33 = assay: 3 day MIC, broth microdilution in 25% PDB; details: ST33, 72 h
Procedure: as §1, §2, §3, §4

Rhizopus spp. = assay: 3 day MIC, broth microdilution in 25% PDB; details: 72 h
Procedure: as §1, §2, §3, §4

Mucor spp. = assay: 3 day MIC, broth microdilution in 25% PDB; details: 72 h
Procedure: as §1, §2, §3, §4

Aspergillus niger = assay: 3 day MIC, broth microdilution in 25% PDB; details: 72 h
Procedure: as §1, §2, §3, §4

Aspergillus fumigatus = assay: 3 day MIC, broth microdilution in 25% PDB; details: 72 h
Procedure: as §1, §2, §3, §4

Stachybotrys chartarum [1] = assay: Fungus resistance test after painting over fungal growth (defacement rating); details: painting over contaminated surfaces; paints containing 100 μg/mL; after 7 days
From the text: In this series of experiments, fungal growth was allowed to cover a painted surface (surface containing 2 coats of the unaltered paint) to a defacement rating of 3-5, forming a ‘contaminated surface’. […] The paint application was extended approximately 1-2 cm beyond the edge of the disc onto the NSA medium. Each formulation used a separate brush to avoid cross contamination. The re-painted discs were placed back into the humid environment with elevated temperature to encourage fungal growth.
This test was used to evaluate the ability of paint films containing antifungal additives to prevent the re-emergence of fungal growth after painting over existing growth.
Olympic® Home interior flat latex paint (PPG Industries, Pittsburgh, Pa.) and Valspar® QuikHide White flat interior paint (Valspar Corporation, Minneapolis, Minn.) were used for the experiments in this study unless specified. Stock solutions of the antifungal additives of interest were prepared in reagent grade dimethyl sulfoxide (DMSO; Alfa Aesar, Ward Hill, Mass.). Additives were spiked (by adding appropriate amounts of the antifungal stock solutions) into the liquid paint at specified concentrations. Samples of additive-spiked paint were vigorously mixed with a vortex mixer for at least one minute to insure uniform dispersion of the additive in the paint. […] Studies that used other brands of paint followed the same protocol as described for those using the Olympic® Home interior flat latex paint.
Test surfaces were prepared in triplicate. In most cases, the tested conditions were repeated on a different date, again in triplicate. […] Two coats of paint were applied with a polyester brush to completely cover both faces of the filter paper disc, allowing at least four hours drying time between coats.
Nutrient-Salts Agar (NSA) media was prepared according to ASTM method G21-13 in 100×15 mm sterile polystyrene petri dishes (VWR® Radnor, Pa.) with a solidified agar layer from 3 to 6 mm (⅛ to ¼ in.) in depth. The agar was allowed to solidify for at least 24 hours before being used. The painted test filter paper discs were placed in the center of the agar plates in a biosafety hood while wearing clean nitrile gloves.
The paint coatings were evaluated against three representative fungi: Stachybotrys chartarum, Penicillium chrysogenum, and Alternaria alternata. […] Fungal isolates of Alternaria alternata and Penicillium chrysogenum were obtained from the Plant Pathology and Environmental Microbiology Department at Penn State University.
A spore suspension of each of these fungi was prepared by pouring a 20-mL portion of autoclaved deionized water containing 0.01% Tween® 20 onto a subculture of each fungal species. Spores were counted with the use of a hemocytometer (Hausser Scientific, Horsham, Pa.) under a microscope. Spore suspensions of Stachybotrys chartarum and Penicillium chrysogenum were diluted to 1×10^6 spores/mL with autoclaved deionized water. Spore suspensions of Alternaria alternata were used “as is” in the range of 200,000 to 400,000 spores/mL.
Painted test surfaces were inoculated with a spray bottle or with a cotton-tipped applicator. To inoculate the sample with a spray bottle, the spore suspension was sprayed twice on the painted test discs with a spray bottle that delivered approximately 0.14 g of fluid per spray. To inoculate the sample with a cotton-tipped applicator, an autoclaved cotton-tipped applicator was submerged in approximately 400 μL of the inoculum solution and applied evenly over the surface of the painted test surface twice.

Alternaria alternata = assay: 3 day MIC, broth microdilution in 25% PDB; details: 72 h, 25% PDB, read-out: 3 day MIC
Procedure: as §1, §2
(§5) The studies were performed in flat bottom, 96-well microtiter plates (Greiner Bio-One, Frickenhausen, Germany).
as §4

Stachybotrys chartarum [2] = assay: 3 day MIC, broth microdilution in 25% PDB; details: 72 h, 25% PDB, read-out: 3 day MIC
Procedure: as §1, §2, §5, §4

Penicillium corylophilum = assay: 3 day MIC, broth microdilution in 25% PDB; details: 72 h, 25% PDB, read-out: 3 day MIC
Procedure: as §1, §2, §5, §4

Penicillium purpurogenum = assay: 3 day MIC, broth microdilution in 25% PDB; details: 72 h; Penicillium purpurogenum; 25% PDB; read-out: 3 day MIC
Procedure: as §1, §2, §5, §4

Penicillium chrysogenum = assay: 3 day MIC, broth microdilution in 25% PDB; details: 72 h, 25% PDB, read-out: 3 day MIC
Procedure: as §1, §2, §5, §4

[3] = test system: Penicillium brevicompactum; assay: 3 day MIC, broth microdilution in 25% PDB; details: 72 h, 25% PDB, read-out: 3 day MIC
Procedure: as §1, §2, §5, §4

| MIC (Aureobasidium pullulans) [µg/mL] | MIC (Aspergillus flavus) [µg/mL] | MIC (Fusarium oxysparum ST-33) [µg/mL] | MIC (Rhizopus spp.) [µg/mL] | MIC (Mucor spp.) [µg/mL] | MIC (Aspergillus niger) [µg/mL] | MIC (Aspergillus fumigatus) [µg/mL] | MIC (Alternaria alternata) [µg/mL] | MIC (Stachybotrys chartarum [2]) [µg/mL] | MIC (Penicillium corylophilum) [µg/mL] | MIC (Penicillium purpurogenum) [µg/mL] | MIC (Penicillium chrysogenum) [µg/mL] | MIC [3] [µg/mL] | Structure (SMILES) | ability to inhibit Stachybotrys chartarum re-emergence on the surfaces (Stachybotrys chartarum [1]) |
| --- | --- | --- | --- | --- | --- | --- | --- | --- | --- | --- | --- | --- | --- | --- |
| > 64 | > 64 | > 64 | > 64 | > 64 | > 64 | > 64 | 200 (≈ 1340 µM) | 64 (≈ 430 µM) |  |  |  |  | Nc1ccc2c(c1)COB2O [Compound B6, 5-Amino-1,3-dihydro-2,1-benzoxaborol-1-ol] | very little ability to inhibit |
|  |  |  |  |  |  |  | > 200 | 25 (≈ 153 µM) |  |  |  |  | Nc1ccc2c(c1)B(O)OCC2 [Compound B7, 7-amino-3,4-dihydro-1H-2,1-benzoxaborinin-1-ol] | very little ability to inhibit |
|  |  |  |  |  |  |  | 200 (≈ 1120 µM) | 100 (≈ 562 µM) | > 200 | > 200 | > 200 | > 200 | O=C(O)c1ccc2c(c1)COB2O [Compound B10, 1-hydroxy-1,3-dihydro-2,1-benzoxaborole-5-carboxylic acid] |  |
|  |  |  |  |  |  |  | 100 (≈ 629 µM) | 12.5 (≈ 78.6 µM) | 100 (≈ 629 µM) | 25 (≈ 157 µM) | 100 (≈ 629 µM) | 50 (≈ 315 µM) | N#Cc1ccc2c(c1)COB2O [Compound B11, 1-hydroxy-1,3-dihydro-2,1-benzoxaborole-5-carbonitirile] |  |
